Measured values taken from article PMC4787089 (Pharmacognosy Magazine, 2015).
Read-outs that look alike come from different tables or passages of the source.

How the values were obtained:
recombinant HDAC8 = molecular target: T1, recombinant HDAC8 (Homo sapiens, UniProt Q9BY41); experiment: Histone deacetylase 8 inhibitory assay; assay type: biochemical; conditions: 10 μM
T1 sequence (Q9BY41 1-377): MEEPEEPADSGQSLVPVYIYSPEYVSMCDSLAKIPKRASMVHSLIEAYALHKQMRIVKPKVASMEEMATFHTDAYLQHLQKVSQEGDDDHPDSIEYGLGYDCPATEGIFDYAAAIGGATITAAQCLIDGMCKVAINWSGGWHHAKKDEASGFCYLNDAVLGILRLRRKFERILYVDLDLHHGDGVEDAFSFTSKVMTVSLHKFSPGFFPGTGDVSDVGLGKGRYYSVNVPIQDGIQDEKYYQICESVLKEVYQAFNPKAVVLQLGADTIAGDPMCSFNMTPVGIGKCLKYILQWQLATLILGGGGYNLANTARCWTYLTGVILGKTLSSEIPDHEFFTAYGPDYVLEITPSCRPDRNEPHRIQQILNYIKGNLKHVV

[1] = tested on: tested cancer cell lines (HepG2, Hep2, HCT116, RD, MCF7); experiment: In vitro cytotoxicity, summary statements over tested cancer cell lines; assay type: cell-based, human
bovine brain tubulin = experiment: Tubulin polymerization assay; assay type: biochemical; conditions: 10 μM
[2] = Homo sapiens, RD, read-out: IC50 against cancer cell lines

| Compound | Percentage inhibition HDAC8 activity (recombinant HDAC8) | IC50 [1, 2] | further results |
| --- | --- | --- | --- |
| O=Cc1ccc(CO)o1 [5-(hydroxymethyl)-2-furaldehyde] | < 30% | – | – |
| Nc1ncnc2c1ncn2[C@@H]1O[C@H](CO)[C@@H](O)[C@H]1O [Adenosine, adenosine] | stimulated HDAC8 activity | – | – |
| O=c1ccc2ccc3occc3c2o1 [Angelicin, angelicin] | – | < 20 µM | SI against cancer cell lines ([1]; tested cancer cell lines (extract and quercetin: except RD cells)): > 7 |
| O=C(/C=C/c1ccc(O)c(O)c1)O[C@@H]1C[C@](O)(C(=O)O)C[C@@H](O)[C@H]1O [Chlorogenic acid, chlorogenic acid] | – | – | Percentage inhibition tubulin polymerization (bovine brain tubulin): moderate inhibition |
| CC(=O)OC1c2c(ccc3ccc(=O)oc23)OC(C)(C)C1OC(=O)C(C)(O)C(C)O (stereo not shown) [Hyuganin E, hyuganin E] | – | – | SI (good selectivity), Hep2, HCT116, and MCF7 ([1]; Hep2, HCT116, and MCF7): > 3; IC50 ([1]; read-out: IC50 values against Hep2, HCT116, and MCF7, Hep2, HCT116, and MCF7): < 25 µM |
| O=c1cc(-c2ccc(O)c(O)c2)oc2cc(O)cc(O)c12 [Luteolin, luteolin] | – | < 20 µM | – |
| O=c1c(O)c(-c2ccc(O)c(O)c2)oc2cc(O)cc(O)c12 [Quercetin, quercetin] | – | < 20 µM | – |
| CC[C@H](CC[C@@H](C)[C@H]1CC[C@H]2[C@@H]3CC=C4C[C@@H](O[C@@H]5O[C@H](CO)[C@@H](O)[C@H](O)[C@H]5O)CC[C@]4(C)[C@H]3CC[C@]12C)C(C)C [β-Sitosterol-3-O-glucoside, β-sitosterol-3-O-glucoside] | stimulated HDAC8 activity | – | – |
